Test results taken from US6342492B1, “Anti-viral triaza compounds and compositions” (The Research Foundation of State University of New York, priority 1995, dated 2002).
Where a name gives a salt, the structure may show the parent alone. Read-outs that look alike come from different tables or passages of the source.

Key:
[1] = system: HIV strain 2h, a primary pediatric clinical isolate; assay: Protein (p24) assay in PBMC cells with 2h; format: cell-based; details: read-out: ED50 2h/PBMC
Human Cytomegalovirus [2] = assay: Semi-automated CPE-inhibition assay for HCMV in human foreskin fibroblast cells; format: cell-based
Method: (§1) Additional antiviral testing was carried out to test the efficacy of compounds of the invention against human cytomegalovirus (HCMV) and another herpesvirus, Variecella Zoster Virus(VZV). The compounds tested were compound (1), the HCl salt of compound (1), Compounds 211, 43, 213 and 214.

[3] = system: influenza virus (FLU WSN); assay: Antiviral testing against influenza virus (Example 5); format: cell-based; details: FLU WSH, concentration causing 50% protection against virus
[4] = system: Varicella Zaster Virus (VZV); assay: Ocular Varicella Zaster Virus infection in rabbits, intravenous therapy; format: in vivo, rabbit
Varicella Zoster Virus = assay: Plaque reduction assay for VZV (Ellen strain); format: cell-based
Method: as §1

[5] = system: human foreskin fibroblast cells; assay: Inhibition of cell proliferation (cytotoxicity) in herpesvirus screening; format: cell-based
[6] = system: herpes simplex virus (HSV); assay: Antiviral testing against herpes simplex virus (Example 5); format: cell-based; details: concentration causing 50% protection against virus, PDR = poor dose response
[7] = system: human cytomegalovirus (HCMV); assay: Antiviral testing against human cytomegalovirus (Example 5); format: cell-based; details: concentration causing 50% protection against virus, PDR = poor dose response
HIV strain MD48 = assay: MAGI assay on HeLa-MAGIC cells (plaque inhibition); format: cell-based; details: read-out: ED50 MD48/HeLa
rous sarcoma virus = assay: Antiviral testing against rous sarcoma virus (Example 5); format: cell-based; details: RSV, concentration causing 50% protection against virus, PDR = poor dose response
HIV strain MB48 = assay: Reverse transcriptase (RT) assay in MT-2 cells, HIV strain MB48; format: cell-based
[8] = system: HIV-1 (IIIB, AZT-resistant, AZT-sensitive, A17, WeJo), HIV-2, SIV; assay: Anti-HIV testing against additional strains (Example 2); format: cell-based; details: viruses and cell lines listed in Example 2
Method: (§2) Compounds of the invention were tested to assess the efficacy of the inhibitory effect of the compounds against HIV. The screen was carried out in a soluble formazan assay by the tetrazolium method according to Weislow et al., J. Natl. Cancer Inst. 81:577-586, 1989.
(§3) The compound was dissolved in dimethyl sulfoxide (DMSO) (final conc. less than 0.25%) and then diluted 1:100 in cell culture medium. Because DMSO is toxic to cells at concentration above 1%, the concentration of the compound in DMSO should be at least 10 uM before dilution with aqueous solution. Various concentrations of the compound were tested against HIV-1 in CEM-IW cells. After six days incubation at 37° C. in a 5% carbon dioxide atmosphere, viable cells were analyzed through addition of tetrazolium salt XTT followed by incubation to allow formazan color development. Cell viability was viewed microscopically and detected spectrophotometrically to quantitate formazan production.
(§4) Testing was carried out as described in Example 1 against additional HIV strains. The compound CADA was active against the following viruses using the indicated cell lines:
(§5) IIIB strain of HIV-1/MT-4 cell line
(§6) AZT—resistant HIV-1/MT-2 and MT-4 cell lines
(§7) AZT—sensitive HIV-1/MT-4 cell line
A17, a strain of HIV-1 resistant to most of the non-nucleoside reverse transcriptase inhibitors/MT-2 and MT-4 cell lines, […]

[9] = Formulation for animal studies in DMSO/normal saline; format: physicochemical; details: 1:20 mixture of DMSO and normal saline (pH 2.7)
Method: (§8) Additional studies on stability, solubility, formulation and pharmokinetics were carried out. Plasma elimination and urinary recovery from mice following i.v. administeration were examined. Solubility of the compound in human, mouse, rat plasma and plasma ultrafiltrate were examined. Stability of the compound in human urine was determined.

HIV-1 = assay: Anti-HIV soluble formazan (XTT tetrazolium) assay in CEM-IW cells; format: cell-based
Method: (§9) In these tests, the IC50 (50% inhibitory concentration) is the concentration resulting in 50% cellular toxicity. EC50 (median effective concentration) is the compound concentration that reduces infection by 50%. The effectiveness of a compound against a virus is expressed as TI50 (median therapeutic index) which is determined by the ratio IC50/EC50.
as §2, §3

HIV protease = target: T1, HIV protease (Human immunodeficiency virus type 1 group M subtype B, UniProt P04585); assay: Protease activity (rp HPLC); format: biochemical; details: read-out: Protease Activity (rp HPLC) ID50
T1 construct: HIV protease

HIV-1 Wejo = assay: PBL/HIV-1 Wejo infection; format: cell-based
From the text: (§10) The studies were based on activity of the compound against HIV-1 in peripheral blood lymphocytes. The results with different solutions and different batches of the compound confirm that the compound is active at submicromolar levels (EC50) and has low cytotoxicity (IC50).

HIV-1 Ba-L = assay: Mo-MO/HIV-1 Ba-L infection; format: cell-based; details: Human immunodeficiency virus 1, BAL; fresh
in vitro [10] = format: in vitro ADME; details: plasma
Method: as §8

[11] = Inhibition of cell proliferation (cytotoxicity) in herpesvirus screening; format: cell-based, human; details: human, human foreskin fibroblast cells, inhibit cell proliferation by 50%
[12] = Stability in pH 4.0 buffer; format: physicochemical
Method: as §8

virus attachment = assay: Attachment (p 24 based); format: cell-based, HIV
[13] = Solubility in human plasma; format: physicochemical; details: plasma or biological fluid, human plasma at 37° C.
Method: as §8

U1/TNF latent infection = assay: Latent infection (U1/TNF); format: cell-based
Mo-MO = assay: Cytotoxicity in Mo-MO/HIV-1 Ba-L infection assay; format: cell-based; details: high test
[14] = system: MT-4, CEM, MT-2 cell lines, PBMCs; assay: Cell toxicity in testing against additional strains (Example 2); format: cell-based; details: Homo sapiens, MT2
Method: as §9, §4, §5, §6, §7
A17, a strain of HIV-1 resistant to most of the non-nucleoside reverse transcriptase inhibitors/MT-2 and MT-4 cell lines,
WeJo, a clinical isolate of HIV-1/PBMCs (fresh human peripheral blood mononuclear cells).

[15] = Plasma elimination in mice after i.v. administration; format: in vivo; details: mouse plasma, intravenous administration
Method: as §8

in vitro [16] = format: in vitro ADME; details: rat, plasma
cell fusion = assay: Cell fusion (mechanism of action studies); format: cell-based, HIV; details: preliminary mechanism of action studies
[17] = target: T2, HIV reverse transcriptase (Human immunodeficiency virus type 1 group M subtype B, UniProt P04585); assay: RT activity (rA.dT); format: biochemical
T2 construct: HIV reverse transcriptase

[18] = system: peripheral blood lymphocytes; assay: Cytotoxicity in PBL/HIV-1 Wejo infection assay; format: cell-based
From the text: as §10

Human Cytomegalovirus [19] = assay: Plaque reduction assay for HCMV; format: cell-based; details: read-out: Human Cytomegalovirus EC50 (values in parentheses)
[20] = Protein (p24) assay in PBMC cells
[21] = inhibit cell proliferation by 50%, HCMV CPE-inhibition screen, read-out: Human Cytomegalovirus CC50
[22] = inhibit cell proliferation by 50%, VZV screen, read-out: Varicella Zoster Virus CC50
[23] = MAGI assay on HeLa-MAGIC cells (plaque inhibition)
[24] = Reverse transcriptase (RT) assay in MT-2 cells, read-out: ED50 MB48/MT-2
[25] = HCMV CPE-inhibition screen, read-out: Human Cytomegalovirus CC50
[26] = VZV screen, read-out: Varicella Zoster Virus CC50
[27] = Human immunodeficiency virus 1, 2 h, Protein (p24) assay in PBMC cells
[28] = Human immunodeficiency virus 1, MAGI assay on HeLa-MAGIC cells (plaque inhibition)
[29] = Human immunodeficiency virus 1, MT2, Reverse transcriptase (RT) assay in MT-2 cells, read-out: ED50 MB48/MT-2

For `C=C1CN(S(=O)(=O)c2ccccc2)CCCN(Cc2ccccc2)CCCN(S(=O)(=O)c2ccccc2)C1` (as salt: HCl) [Compound 211, 9-Benzyl-3-methylene-1,5-dibenzenesulfonyl-1,5,9-triazacyclododecane], the melting point was 135 to 136 °C.

Work on `O=S(=O)(NCCCN(CCCNS(=O)(=O)c1ccccc1)Cc1ccccc1)c1ccccc1` (as salt: hydrochloride) [Compound 210, N-Benzylbis(3-benzenesulfonamidopropyl)amine] yielded a melting point of 135 to 136 °C.

For `C=C1CN(S(=O)(=O)c2ccc(C)cc2)CCCN(Cc2ccccc2)CCCN(S(=O)(=O)c2ccc(C)cc2)C1.Cl` [1 · HCl], the EC50 [1, 20] was 0.15 µM, the EC50 (Human Cytomegalovirus [2]) was > 160 µM and the IC50 [3] was >50 mg/L. For the same compound, the “development of iritis and resolution of VZV disease, comparison of therapies” value ([4]; By day 5 PI) was “more effective than acyclovir therapy”, the “iris disease (uveitis) development” value ([4]; rabbits, intravenous therapy) was “positive therapeutic response” and the “VZV-induced corneal stromal disease development” value ([4]; rabbits, intravenous, CADA-HCl 5 and 10 mg/kg/day, ACV 20 mg/kg/day) was “effective in reducing the development of stromal disease”. The EC50 (Varicella Zoster Virus) was 3.4 µM, the CC50 [5, 21] was > 160 µM and the CC50 [5, 22] was > 160 µM. The IC50 [6] was “PDR”, the IC50 ([7]; HCMV) was “PDR” and the EC50 (HIV strain MD48; [23]) was 0.1 µM. For the same compound, the IC50 (rous sarcoma virus) was “PDR” and the EC50 (HIV strain MB48; [24]) was 0.2 µM.

For `C=C1CN(S(=O)(=O)c2ccc(C)cc2)CCCN(Cc2ccccc2)CCCN(S(=O)(=O)c2ccc(C)cc2)C1` [Compound 1, 9-Benzyl-3-methylene-1,5-ditosyl-1,5,9-triazacyclododecane], the EC50 ([1]; Human immunodeficiency virus 1, PBMC, 2 h) was 0.15 µM, the EC50 [8] was 2 µM and the EC50 (Human Cytomegalovirus [2]; Human betaherpesvirus 5) was > 34 µM. For the same compound, the “concentration at which the compound can be formulated” value [9] was 1.2 µM, the IC50 ([3]; listed as CADA (1)) was > 50 mg/L and the IC50 ([3]; unidentified influenza virus, WSN) was > 30 mg/L. For the same compound, the EC50 (HIV-1; Human immunodeficiency virus 1, HIV-1(6S)-AZT sensitive, CEM-IW cells, first test) was 1.2 µM, the EC50 (HIV-1; Human immunodeficiency virus 1, second test, another batch, primary screen) was 2.4 µM and the IC50 (HIV protease) was 40 µM. The EC50 (HIV-1 Wejo; Human immunodeficiency virus 1, Batch 1, A) was 0.55 µM, the EC50 (HIV-1 Wejo; Human immunodeficiency virus 1, Batch 1, B) was 0.16 µM and the EC50 (HIV-1 Wejo; Human immunodeficiency virus 1, Batch 2) was 0.65 µM. For the same compound, the EC50 (Varicella Zoster Virus; Human alphaherpesvirus 3) was 5.3 µM, the EC50 (HIV-1 Ba-L) was 1.5 µM and the half-life (in vitro [10]; human) was 126 h. For the same compound, the half-life (in vitro [10]; mouse) was > 200 h, the CC50 [11, 25] was 133 µM and the CC50 [11, 26] was 89 µM. For the same compound, the half-life [12] was 139 h, the Attachment (virus attachment) was “No Inhibition” and the solubility [13] was 1 to 2 µg/mL. For the same compound, the solubility ([13]; conversion of ug/mL) was 2 to 3 µM, the “Latent Infection” value (U1/TNF latent infection) was “No inhibition” and the IC50 (Mo-MO) was > 30 µM. The IC50 [14] was > 30 µM, the “time detectable in plasma” value [15] was “up to 2 hours” and the IC50 ([7]; HCMV, listed as CADA (1)) was > 50 mg/L. The IC50 ([7]; Human betaherpesvirus 5, HCMV, read-out: IC50) was > 30 mg/L, the half-life (in vitro [16]) was > 200 h and the EC50 (HIV strain MD48; Human immunodeficiency virus 1, MAGI) was 0.5 µM. For the same compound, the “inhibition of cell fusion” value (cell fusion) was “does not appear to inhibit”, the IC50 (rous sarcoma virus; read-out: IC50) was > 30 mg/L and the “RT activity (rA.dT) ID50” value [17] was “No Inhibition”. For the same compound, the IC50 ([18]; Batch 1, B) was > 100 µM, the IC50 ([18]; Batch 2) was > 100 µM and the IC50 ([18]; Lymphocyte, Batch 1, A) was > 100 µM. The EC50 (HIV strain MB48; Human immunodeficiency virus 1, MT2, read-out: ED50 MB48/MT-2) was 0.8 µM.

Work on `C=CCN(CCCN(CCCN(CC=C)S(=O)(=O)c1ccc(C)cc1)Cc1ccccc1)S(=O)(=O)c1ccc(C)cc1` [Compound 004, N-Benzylbis[3-(N′-2-propenyltoluenesulfonamido)propyl]amine dihydrogen sulfate] yielded an EC50 [1, 20] of 0.5 µM, an EC50 (HIV strain MD48; [23]) of 3.5 µM and an EC50 (HIV strain MB48; [24]) of 2.6 µM.

In the case of `C=C1CN(S(=O)(=O)c2ccc(C)cc2)CCC[N+]([O-])(Cc2ccccc2)CCCN(S(=O)(=O)c2ccc(C)cc2)C1` [Compound 43, 9-Benzyl-3-methylene-1,5-ditosyl-1,5,9-triazacyclododecane-9-oxide], the EC50 [1, 27] is reported as 0.5 µM, the EC50 (Human Cytomegalovirus [2]; Human betaherpesvirus 5) is reported as > 170 µM and the EC50 (Varicella Zoster Virus; Human alphaherpesvirus 3) is reported as 24.3 µM. For the same compound, the CC50 [11, 25] was > 170 µM, the CC50 [11, 26] was > 170 µM and the EC50 (HIV strain MD48; [28]) was 3.5 µM. It also gave an EC50 (HIV strain MB48; [29]) of 1.8 µM.

For `C=C1CN(S(=O)(=O)c2ccccc2)CCCN(Cc2ccccc2)CCCN(S(=O)(=O)c2ccccc2)C1` [Compound 211, 9-Benzyl-3-methylene-1,5-dibenzenesulfonyl-1,5,9-triazacyclododecane], the EC50 [1, 27] was 0.5 µM, the EC50 (Human Cytomegalovirus [2]; Human betaherpesvirus 5) was > 170 µM and the EC50 (Varicella Zoster Virus; Human alphaherpesvirus 3) was 91.7 µM. The CC50 [11, 25] was > 170 µM, the CC50 [11, 26] was > 170 µM and the EC50 (HIV strain MD48; [28]) was 1.5 µM. The EC50 (HIV strain MB48; [29]) was 1.9 µM.

“N-Benzyl-N-[3-(N-2-methyl-2-propenyl-toluenesulfonamido)propyl]-N-(3-toluenesulfonamidopropyl)amine dihydrogen sulfate [Compound 214]” gave an EC50 (Human Cytomegalovirus [2]) of 2.2 µM, an EC50 (Human Cytomegalovirus [19]) of 20.5 µM and an EC50 (Varicella Zoster Virus) of 25.2 µM. The CC50 [5, 21] was > 150 µM, the CC50 [5, 22] was 68.5 µM and the CC50 ([5]; with HCMV plaque reduction assay, read-out: Human Cytomegalovirus CC50 (values in parentheses)) was 147 µM.
